Experiment [1] deals with T1, DDR1 (Mus musculus, UniProt Q03146).
T1 construct: expressed in transfected cells; host or cells: HEK293T
T1 sequence (Q03146 20-911): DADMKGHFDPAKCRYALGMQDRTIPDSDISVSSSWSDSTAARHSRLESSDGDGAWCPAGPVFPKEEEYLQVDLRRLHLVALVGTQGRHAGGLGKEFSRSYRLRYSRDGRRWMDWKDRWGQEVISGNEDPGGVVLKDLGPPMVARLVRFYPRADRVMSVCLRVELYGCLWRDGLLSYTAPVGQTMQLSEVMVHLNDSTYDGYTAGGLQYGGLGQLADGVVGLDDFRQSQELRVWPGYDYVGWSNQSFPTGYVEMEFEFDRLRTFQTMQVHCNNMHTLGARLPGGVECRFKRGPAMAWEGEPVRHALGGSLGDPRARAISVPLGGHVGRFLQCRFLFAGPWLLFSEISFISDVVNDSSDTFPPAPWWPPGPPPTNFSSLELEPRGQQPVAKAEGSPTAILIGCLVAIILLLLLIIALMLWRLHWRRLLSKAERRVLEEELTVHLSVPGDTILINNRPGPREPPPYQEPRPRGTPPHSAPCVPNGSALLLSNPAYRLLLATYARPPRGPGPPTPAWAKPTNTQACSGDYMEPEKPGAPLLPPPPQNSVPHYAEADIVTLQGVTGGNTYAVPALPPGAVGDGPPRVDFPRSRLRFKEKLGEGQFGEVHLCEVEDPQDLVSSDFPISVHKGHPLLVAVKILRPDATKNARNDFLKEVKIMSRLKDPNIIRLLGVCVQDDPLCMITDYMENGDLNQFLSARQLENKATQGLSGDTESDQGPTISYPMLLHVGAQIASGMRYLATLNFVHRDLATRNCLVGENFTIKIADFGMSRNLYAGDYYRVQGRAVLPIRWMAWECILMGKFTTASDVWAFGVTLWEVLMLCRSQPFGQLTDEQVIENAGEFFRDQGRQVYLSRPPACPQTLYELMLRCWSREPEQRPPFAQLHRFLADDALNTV
The experiment is described as follows: Cellular assay: inhibition of Collagen I-induced DDR1 autophosphorylation in HEK293T cells transiently transfected with DDR1 plasmid (Western blot). The following applies: pcDNA3.1 DDR1 WT mouse plasmid, compound 1 h, then 10 µg/mL Collagen I 1 h, P-DDR1 (Y513), read-out: pDDR1 EC50. Format: cell-based, human. The method, then: DDR1/2 cellular assay: Transient transfection of HEK293T cells with DDR1 plasmid is used to study the inhibition of the autophosphorylation of DDR1 induced by Collagen I in cells. HEK293T are seeded, 6x10^5 cells per well in 6-well plates and incubated for 6 h at 37 °C, 5% CO2. Then, cells are transfected using Effectene reactive (Quiagen) with pcDNA3.1 DDR1 WT mouse plasmid. Cells are incubated with transfection complexes under normal growth conditions for 24 h. After that, medium is replaced with fresh medium and cells are incubated for an additional 18 h. Eight serial 1:3 compound dilutions are made in DMSO. The compounds are added to each well of 6 well cell plates and are incubated at 37 °C under CO2 atmosphere 1 h. DDR1's autophosphorylation is stimulated by 1h treatment with 10 µg/mL Collagen I. Then, cells are washed in PBS, lyse adding 100 µl of complete RIPA protein lysis buffer (RIPA Buffer, 1 mM DTT, 5 mM Bezamidine, 10 µg/mL Aprotinin, 10 µg/mL Leupeptin, 710 ng/mL Pepstatin A, 100 µg/mL Trypsin Inhibitor, 40 µg/mL Bestatin, completed with PhosSTOP EASYpack and complete Mini, EDTA-free) and incubated 20 minutes at 4 °C and then centrifugated. Lysates are kept at -80 °C. The protein content of the lysates is determined by DC protein assay (Biorad, Ref. 5000116). The proteins are resolved by SDS-PAGE and transferred to nitrocellulose membrane (GE Healthcare #10600003). The membranes are incubated overnight at 4 °C with antibodies specific for DDR1 (D1G6) (Cell signaling #5583), P-DDR1 (Y513) (E1N8F) (Cell Signaling # 14531) they are washed and then incubated with Alexa Fluor 680 goat anti-rabbit IgG secondary antibodies (Invitrogen, A21076). The bands are visualized and quantified using an Odyssey infrared imaging system (Li-Cor Biosciences). The percentage of DDR1 phosphorylation is finally plotted against concentration for each compound and EC50s for intracellular DDR1 inhibition are calculated using ActivityBase from IDBS.

Experiment [2] has as its target T2, DDR2 (Homo sapiens, UniProt Q16832).
T2 construct: The enzymes were purchased as a catalytic domain GST Tag DDR1(#PR6913A) and DDR2 (#PR7167A); purchased ThermoFisher PR7167A
T2 sequence (Q16832 563-849 limits assumed): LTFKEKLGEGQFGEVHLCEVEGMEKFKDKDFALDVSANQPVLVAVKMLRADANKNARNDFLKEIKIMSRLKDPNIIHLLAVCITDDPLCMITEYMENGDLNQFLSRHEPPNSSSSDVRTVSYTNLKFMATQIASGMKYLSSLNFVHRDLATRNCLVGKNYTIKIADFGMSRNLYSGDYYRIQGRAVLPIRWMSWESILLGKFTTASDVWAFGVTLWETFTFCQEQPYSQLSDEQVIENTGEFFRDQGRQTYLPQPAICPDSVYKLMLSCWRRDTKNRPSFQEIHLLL
The experiment is described as follows: LanthaScreen Eu-Kinase Binding Assay (TR-FRET tracer displacement), DDR2. The following applies: catalytic domain GST Tag DDR2; Kinase Tracer 178. The text has this: (§1) DDR1/2 binding assay: The binding assay relies on the LanthaScreen ™ Eu-Kinase Binding Assay (ThermoFisher Scientfic). This is a kinase assay platform based on measuring the binding and displacement of an Alexa Fluor® conjugate of an ATP-competitive kinase inhibitor or tracer at a kinase active site (Kinase Tracer 178. #PV5593). Binding of the tracer to the kinase is detected by addition of a europium (Eu)-labeled anti-GST antibody (#PV 5594) which specifically labels the kinase of interest. This binding results in a high degree of fluorescence resonance energy transfer (FRET), whereas displacement of the tracer with a kinase inhibitor results in a loss of FRET. The enzymes were purchased as a catalytic domain GST Tag DDR1(#PR6913A) and DDR2 (#PR7167A) from ThermoFisher. Assay conditions were as indicated by the kit manufacturers. Assays were performed in 384-well plates. The final read out was generated using an EnVision plate reader (Perkin-Elmer). The emission ratio was calculated by dividing the acceptor/tracer emission (665 nm) by the antibody/donor emission (615 nm). Values were plotted against the inhibitor concentration and fit to a sigmoid dose-response curve using Activity base by IDBS software.
(In general: Time-resolved FRET reads energy transfer from a long-lived donor to a nearby acceptor.)

In experiment [3] the target is T3, DDR1 (Homo sapiens, UniProt Q08345).
T3 construct: The enzymes were purchased as a catalytic domain GST Tag DDR1(#PR6913A); purchased ThermoFisher PR6913A
The experiment is described as follows: LanthaScreen Eu-Kinase Binding Assay (TR-FRET tracer displacement), DDR1. The following applies: catalytic domain GST Tag DDR1; Kinase Tracer 178.
From the text: as §1

T3 sequence (Q08345 610-905 limits assumed): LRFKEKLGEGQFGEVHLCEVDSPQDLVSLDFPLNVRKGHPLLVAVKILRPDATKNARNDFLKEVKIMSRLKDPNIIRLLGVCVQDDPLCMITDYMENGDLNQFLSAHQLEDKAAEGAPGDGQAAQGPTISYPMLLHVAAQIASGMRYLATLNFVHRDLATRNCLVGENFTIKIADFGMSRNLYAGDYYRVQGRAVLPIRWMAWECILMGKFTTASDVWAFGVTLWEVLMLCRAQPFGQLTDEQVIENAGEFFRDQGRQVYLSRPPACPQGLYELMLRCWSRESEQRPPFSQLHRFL

Consider `O=c1ccnc2sc(-c3ccnc(Nc4cccc(N5CCN(CCO)CC5)c4)n3)c(-c3ccc(Cl)cc3)n12` [Compound 44, 3-(4-Chloro-phenyl)-2-(2-{3-[4-(2-hydroxy-ethyl)-piperazin-1-yl]-phenylamino}-pyrimidin-4-yl)-thiazolo[3,2-a]pyrimidin-5-one], for which the EC50 – broadly, the concentration that produces a half-maximal response – in experiment [1] came to 24.9 nM. Besides, the IC50 (as a rule, the concentration needed to halve the response being measured) in experiment [2] was 11.7 nM; in experiment [3] it was 2.73 nM.

As to `CN1CCN(c2ccc(Nc3nccc(-c4sc5nccc(=O)n5c4-c4ccc(Cl)cc4)n3)cc2)CC1` [Compound 45, 3-(4-Chloro-phenyl)-2-{2-[4-(4-methyl-piperazin-1-yl)-phenylamino]-pyrimidin-4-yl}-thiazolo[3,2-a]pyrimidin-5-one], the EC50 in experiment [1] turned out to be 7.63 nM. Also, the figures for the half-inhibitory concentration (IC50) in experiment [2] and in experiment [3] were 12.6 nM and 4.23 nM, respectively.

Take `COc1ccccc1-c1c(-c2ccnc(Nc3cccc(S(N)(=O)=O)c3)n2)sc2nccc(=O)n12` [Compound 46, 3-{4-[3-(2-Methoxy-phenyl)-5-oxo-5H-thiazolo[3,2-a]pyrimidin-2-yl]-pyrimidin-2-ylamino}-benzenesulfonamide]: the concentration giving a half-maximal response (EC50) in experiment [1] is 30.6 nM. The IC50 was 20.1 nM in experiment [2] and 5.3 nM in experiment [3].

As for `COc1ccccc1-c1c(-c2ccnc(Nc3cccc(N4CCN(CCO)CC4)c3)n2)sc2nccc(=O)n12` [Compound 47, 2-(2-{3-[4-(2-Hydroxy-ethyl)-piperazin-1-yl]-phenylamino}-pyrimidin-4-yl)-3-(2-methoxy-phenyl)-thiazolo[3,2-a]pyrimidin-5-one], the EC50 in experiment [1] came out at 27.8 nM. Besides, the figures for the IC50 in experiment [2] and in experiment [3] were 24.4 nM and 9.5 nM, respectively.

As for `COc1ccccc1-c1c(-c2ccnc(Nc3ccc(N4CCN(C)CC4)cc3)n2)sc2nccc(=O)n12` [Compound 48, 3-(2-Methoxy-phenyl)-2-{2-[4-(4-methyl-piperazin-1-yl)-phenylamino]-pyrimidin-4-yl}-thiazolo[3,2-a]pyrimidin-5-one], in experiment [1], the EC50 was found to be 27.5 nM. Moreover, the IC50 in experiment [2] amounted to 71.2 nM; in experiment [3], 19.3 nM.

For `COc1cccc(-c2c(-c3ccnc(Nc4cccc(S(N)(=O)=O)c4)n3)sc3nccc(=O)n23)c1` [Compound 49, 3-{4-[3-(3-Methoxy-phenyl)-5-oxo-5H-thiazolo[3,2-a]pyrimidin-2-yl]-pyrimidin-2-ylamino}-benzenesulfonamide], the EC50 in experiment [1] worked out at 99.8 nM. The IC50 in experiment [2] amounted to 103 nM; in experiment [3] it was 20.9 nM.

On to `COc1cccc(-c2c(-c3ccnc(Nc4cccc(N5CCN(CCO)CC5)c4)n3)sc3nccc(=O)n23)c1` [Compound 50, 2-(2-{3-[4-(2-Hydroxy-ethyl)-piperazin-1-yl]-phenylamino}-pyrimidin-4-yl)-3-(3-methoxy-phenyl)-thiazolo[3,2-a]pyrimidin-5-one], for which, in experiment [1], the EC50 was determined as 33.4 nM. In addition, the results for the IC50 in experiment [2] and in experiment [3] were 79 nM and 21.1 nM, respectively.

As for `COc1cccc(-c2c(-c3ccnc(Nc4ccc(N5CCN(C)CC5)cc4)n3)sc3nccc(=O)n23)c1` [Compound 51, 3-(3-Methoxy-phenyl)-2-{2-[4-(4-methyl-piperazin-1-yl)-phenylamino]-pyrimidin-4-yl}-thiazolo[3,2-a]pyrimidin-5-one], the EC50 in experiment [1] stood at 19.2 nM. Moreover, the IC50 in experiment [2] was 27.7 nM; in experiment [3], 8.34 nM.

For the compound `COc1ccc(-c2c(-c3ccnc(Nc4cccc(S(N)(=O)=O)c4)n3)sc3nccc(=O)n23)cc1` [Compound 52, 3-{4-[3-(4-Methoxy-phenyl)-5-oxo-5H-thiazolo[3,2-a]pyrimidin-2-yl]-pyrimidin-2-ylamino}-benzenesulfonamide], the EC50 in experiment [1] amounted to 112 nM. For the same compound, the IC50 in experiment [2] came to 40.6 nM; in experiment [3] it was 10.9 nM.

Regarding `COc1ccc(-c2c(-c3ccnc(Nc4cccc(N5CCN(CCO)CC5)c4)n3)sc3nccc(=O)n23)cc1` [Compound 53, 2-(2-{3-[4-(2-Hydroxy-ethyl)-piperazin-1-yl]-phenylamino}-pyrimidin-4-yl)-3-(4-methoxy-phenyl)-thiazolo[3,2-a]pyrimidin-5-one], in experiment [1], the EC50 was 19.3 nM. In addition, the figures for the IC50 in experiment [2] and in experiment [3] were 16.8 nM and 5.46 nM, respectively.

Regarding `COc1ccc(-c2c(-c3ccnc(Nc4ccc(N5CCN(C)CC5)cc4)n3)sc3nccc(=O)n23)cc1` [Compound 54, 3-(4-Methoxy-phenyl)-2-{2-[4-(4-methyl-piperazin-1-yl)-phenylamino]-pyrimidin-4-yl}-thiazolo[3,2-a]pyrimidin-5-one], the EC50 in experiment [1] is 18.2 nM. The figures for the IC50 in experiment [2] and in experiment [3] were 28.8 nM and 4.19 nM, respectively.

As to `CN1CCN(c2ccc(Nc3nccc(-c4sc5nccc(=O)n5c4-c4ccccc4O)n3)cc2)CC1` [Compound 55, 3-(2-Hydroxy-phenyl)-2-{2-[4-(4-methyl-piperazin-1-yl)-phenylamino]-pyrimidin-4-yl}-thiazolo[3,2-a]pyrimidin-5-one], the half-maximal effective concentration (EC50) in experiment [1] was 21.8 nM. Besides, the IC50 in experiment [2] turned out to be 6.37 nM; in experiment [3], 2.28 nM.

`CN1CCN(c2ccc(Nc3nccc(-c4sc5nccc(=O)n5c4-c4cccc(O)c4)n3)cc2)CC1` [Compound 56, 3-(3-Hydroxy-phenyl)-2-{2-[4-(4-methyl-piperazin-1-yl)-phenylamino]-pyrimidin-4-yl}-thiazolo[3,2-a]pyrimidin-5-one]: the concentration giving a half-maximal response (EC50) in experiment [1] came to 12.2 nM. The IC50 in experiment [2] turned out to be 17.5 nM; in experiment [3], 5.63 nM.

`CN1CCN(c2ccc(Nc3nccc(-c4sc5nccc(=O)n5c4-c4ccc(O)cc4)n3)cc2)CC1` [Compound 57, 3-(4-Hydroxy-phenyl)-2-{2-[4-(4-methyl-piperazin-1-yl)-phenylamino]-pyrimidin-4-yl}-thiazolo[3,2-a]pyrimidin-5-one]: the EC50 in experiment [1] stood at 21.1 nM. In addition, the 50% inhibitory concentration (IC50) in experiment [2] stood at 15 nM; in experiment [3], 4.54 nM.

(Values after EP4032896A1, “THIAZOLOPYRIMIDONES AS INHIBITORS OF DDR1/2 AND THERAPEUTIC USES THEREOF” (Fundación del Sector Público Estatal Centro Nacional de …, priority 2021, dated 2022).)
